SMILES strings stand for the structures.

The results in this text go back to US9861623B1, “Combination treatment of RAS-positive diseases with PDE-δ inhibitor and direct autophagy inhibitor” (Macau University of Science and Technology, priority 2016, dated 2018).

What all share (format): cell-based
One data set deals with LC3-II. The data set can be described thus: Western blot of LC3-I to LC3-II conversion (autophagy). The note with it: 24 h; for accumulation of LC3-II under deltarasin: A549 cells. How it is done: (§1) Cells were washed twice with cold PBS and then lysed in RIPA lysis buffer containing protease and phosphatase inhibitors. Protein concentration of the cell lysate was measured by using the Bio-Rad protein assay kit (Bio-Rad, Philadelphia, Pa., USA). After equalizing the protein concentrations of the samples, 5×laemmli buffer was added and boiled at 100° C. for 5 min. Equal amounts of protein (20-40 μg per lane) were separated with a 10% SDS-PAGE gel, then the separated proteins were transferred to a nitrocellulose (NC) membrane, which was then exposed to 5% non-fat dry milk in TBS contains 0.1% Tween 20 (0.1% TBST) for 1 h at room temperature with constant agitation, followed by overnight incubation at 4° C. with primary anti-bodies. After washing 3 times with TBST, the membranes were incubated with secondary rabbit or mouse fluorescent antibodies, then the signal intensity of the membranes was detected by anLI-COR Odessy scanner (Belfast, Me., USA). All primary antibodies were diluted in 1:1000, while their recommended secondary antibodies were diluted in 1:10000.
A general note: A western blot detects proteins with antibodies after separation by electrophoresis.

The subject of data set [1] is A549 cells. Nature of the data set: GFP-LC3 puncta formation in transfected A549 cells. The note with it: 24 h. How it is done: GFP-LC3 expression vector was utilized to monitor and quantify the induction of autophagy following the 3rd autophagy guidelines. A549 cells were seeded at a density of 2×10^5 cells/well in 6-well plates, according to the manufacturers instructions. Lipofectamine™ 2000 was incubated with GFP-LC3 in Opti-MEM reduced serum medium for 20 min at room temperature. The mixture was added drop by drop to the cells and then incubated for 4-6 h. The DNA/Lipofectamine™ 2000 medium was replaced by fresh medium and cultured for another 24 h. […] The percentage of autophagic cells was calculated by counting the number of the cells showing increased punctuate pattern of LC3 fluorescence (≧10 dots/cell) in immunofluorescence positive cells over the total number of cells in the same field. A minimum of 300 cells from randomly selected fields were scored.

Data set [2] has as its system A549 cells. The data set can be described thus: Cell viability assay (MTT). How it is done:
[…] At the end of the incubation, 10 μl of MTT (5 mg/mL, Sigma) were added into each well for 4 h at 37° C., then the crystals were dissolved in 100 μl of the resolved solution (10% SDS and 0.1 mM HCL). The absorbance at 570 nm was measured using a microplate reader (Tecan, Morrisville, N.C., USA). The cell viability was calculated relative to untreated controls. At least 3 independent experiments were performed and the data were plotted as curve graph.

The next data set concerns PARP, Bcl-2 and Bax. The data set can be described thus: Western blot of apoptosis-related proteins in A549 cells. The settings on record: 24 h. How it is done:
as §1

A further data set concerns intracellular ROS. The data set can be described thus: Detection of ROS production by DCF-DA flow cytometry. The note with it: PANC-1, A549 and H358 cells, 24 h. The protocol:
Intracellular ROS generation was measured by DCF-DA fluorescence probe using flow cytometry. Briefly, A549, H358 and PANC-1 cells (1×10^5 cells/well) were seeded in a six-well plate, and different concentrations of deltarasin were added into the wells. After treatment with deltarasin for 24 h, the treated cells were detached with trypsin, and washed twice with PBS and incubated with 10 μM DCF-DA for 30 min at 37° C. in the dark, the fluorescence-stained cells were then analyzed using a FACS BD Aria III flow cytometer.
(Flow cytometry measures light scatter and fluorescence of single cells or particles in a stream.)

For data set [3], the system named is A549 cells. Nature of the data set: Cell apoptosis assay, Annexin V/PI flow cytometry. The note with it: 24 h. The protocol:
(§2) Apoptosis was measured using the Annexin V-FITC apoptosis detection kit (BD Biosciences, San Jose, Calif., USA), according to the manufacturer protocol. Briefly, A549, H358 and PANC-1 cells (1.0×10^5 cells/well) were allowed to attach in a six-well plate for 24 h, cells were treated with deltarasin for 24 h. Subsequently, cells were trypsinized, washed with PBS and stained with 100 μL binding buffer containing 2 μl Annexin-V FITC (2.5 μg/ml) and 5 μl propidium iodide (PI) (50 μg/ml) incubated in the dark at room temperature for 15 min, before further addition of 400 μl of 1×Annexin-binding buffer. The stained cells were analyzed quantitatively using a BD Aria III Flow Cytometer (BD Biosciences, San Jose, Calif., USA). Data were analyzed by Flow Jo software.

In data set [4] the test system is c-Raf, Akt and ERK phosphorylation. Nature of the data set: Western blot of KRAS downstream signalling. The settings on record: PANC-1, A549 and H358 cells, 24 h, 0-5 μM. The protocol:
as §1

The subject of a further data set is PANC-1 cells. The data set can be described thus: Cell viability assay (MTT). The note with it: Homo sapiens, 72 h. The protocol:
(§3) 3000 cells were seeded at 96-well plates and cultured overnight for cell adhesion, and treated with DMSO or various concentrations of deltarasin for 72 h. At the end of the incubation, 10 μl of MTT (5 mg/mL, Sigma) were added into each well for 4 h at 37° C., then the crystals were dissolved in 100 μl of the resolved solution (10% SDS and 0.1 mM HCL). The absorbance at 570 nm was measured using a microplate reader (Tecan, Morrisville, N.C., USA). The cell viability was calculated relative to untreated controls. At least 3 independent experiments were performed and the data were plotted as curve graph.

The test system of data set [5] is H358 cells. The data set can be described thus: Cell viability assay (MTT). The settings on record: Homo sapiens, NCI-H358, 72 h. The protocol:
as §3

Another data set deals with GTP-RAS. Nature of the data set: RAS activation assay (Raf1 RBD pull-down) in A549 cells. The settings on record: 5 μM, 24 h. The protocol: A549 cells were treated with deltarasin for 24 h at 5 μM. Cells were lysed in lysis buffer, adjusted the volume of each sample to 1 ml with 1×Assay Lysis Buffer. Then 40 μl of the Raf1 RBD Agarose bead slurry was swiftly added to each samples. The samples were incubated at 4° C. for 1 h with gentle agitation. The beads were washed 3 times with cold lysis buffer, and bounded protein was resuspended in 40 μl of 2×reducing SDS-PAGE sample buffer and heated at 100° C. for 5 min. The level of […] was detected after SDS-PAGE followed by Western blot.

The test system of data set [6] is H358 cells. Nature of the data set: Cell apoptosis assay, Annexin V/PI flow cytometry. The settings on record: 24 h, deltarasin 5 μM, 3-MA 5 mM where co-treated. How it is done:
as §2

In the next data set the test system is KRAS. The data set can be described thus: Immunofluorescence of KRAS cellular localization in A549 cells. The settings on record: 5 μM, 24 h. How it is done: Cells were plated on 6-well plates and grown overnight, then treated with 5 μM deltarasin or 5 mM 3-MA for 24 h. Cells were fixed with 4% paraformaldehyde for 20 min at 4° C., followed by permeabilized with 0.2% Triton X-100 in PBS for 10 min. Subsequently, the cells were blocked with 2% BSA/PBS for 30 min at room temperature, then incubated with KRAS antibody (1:100) overnight at 4° C., followed by the secondary antibody (1:500) for 1 h at room temperature. The nuclear was stained with 1 μg/ml Hoechst staining for 10 min in the dark. The cells were visualized using fluorescent microscopy.

Data set [7] has as its system A549 cells. Nature of the data set: Colony formation assay. The settings on record: 10 days. The protocol:
Detailed procedures of colony formation assay were described previously (Franken, N. A., et al., Nature protocols, 2006, 1(5):2315-2319). A549 cells were seeded in a six-well plate at a density of 500 cells per well. The cells were exposed to various concentrations of deltarasin. After 10-14 days, the colonies were fixed with 4% paraformaldehyde and stained with 0.5% (0.5% w/v) crystal violet solutions, the number of colonies were counted under a dissecting microscope.

The test system of data set [8] is AMPK-mTOR signaling pathway. Nature of the data set: Western blot of AMPK-mTOR pathway in A549 cells. The note with it: 0-5 μM, 24 h. The protocol:
as §1

As for `Cn1cnc(N)c2ncnc1-2` [3-MA, 3-methyladenine], the “accumulation of LC3-II induced by deltarasin” value in the data set on LC3-II (PANC-1, A549 and H358 cells, 5 μM deltarasin plus 5 mM 3-MA) is “suppressed”. In addition, in the data set on A549 cells [1] (5 μM deltarasin plus 5 mM 3-MA), the “number of GFP-LC3 puncta under deltarasin” value is given as “significantly diminished”.

As for `CC(=O)N[C@@H](CS)C(=O)O` [NAC, N-acetyl cysteine], in the data set on LC3-II (5 μM deltarasin plus 5 μM NAC), the “accumulation of LC3-II under deltarasin” value is “suppressed”. The deltarasin-induced cell cytotoxicity result with A549 cells [2] (5 μM deltarasin plus 5 μM NAC, 24 h) was “decreases”. Moreover, the “PARP cleavage under deltarasin” value in the data set on PARP, Bcl-2 and Bax (5 μM deltarasin plus 5 μM NAC) was “suppressed”. Also, the “high level of ROS induced by deltarasin” value in the data set with intracellular ROS (5 μM deltarasin plus 5 μM NAC) was “suppressed”. Besides, in the data set on A549 cells [3] (5 μM deltarasin plus 5 μM NAC), the deltarasin-induced apoptosis entry is on record as “decreases”.

Consider `c1cc(-c2cnn3cc(-c4ccc(OCCN5CCCCC5)cc4)cnc23)ccn1` [compound C], for which the “accumulation of LC3-II under deltarasin” value in the data set with LC3-II (5 μM deltarasin plus 5 μM Compound C) is “suppressed”.

For `c1ccc(Cn2c(-c3ccc(OC[C@H](C4CCNCC4)n4c(-c5ccccc5)nc5ccccc54)cc3)nc3ccccc32)cc1` [deltarasin], the “c-Raf, Akt and ERK phosphorylation” value in data set [4] is reported as “inhibited”. For the same compound, the “conversion of LC3-I to LC3-II” value in the data set on LC3-II (PANC-1, A549 and H358 cells, 0-5 μM, dose-dependent) is on record as “distinctly facilitated”. Besides, the IC50 (as a rule, the concentration needed to halve the response being measured) was 5.29 ± 0.7 µM in the data set with A549 cells [2] (Homo sapiens, 72 h, MTT); 3.86 ± 0.96 µM in the data set with PANC-1 cells; 4.21 ± 0.72 µM in the data set with H358 cells [5]. Also, in the data set on PARP, Bcl-2 and Bax (5 μM), the “cleavage of PARP” value is “induction of the cleavage of PARP”. Also, in the data set with PARP, Bcl-2 and Bax, the “expression of anti-apoptotic protein Bcl-2” value is “reduction”. The “expression of pro-apoptotic protein Bax” value in the data set on PARP, Bcl-2 and Bax is “increase”. Besides, the “intracellular ROS levels” value in the data set with intracellular ROS (5 μM) was “significantly elevated”. The “binding of GTP to c-Raf-1 binding domain (KRAS-GTP level)” value in the data set with GTP-RAS is recorded as “significantly inhibited”. In addition, in the data set with A549 cells [1] (5 μM, vs untreated control), the GFP-LC3 puncta formation result is on record as “increased percentage”. In the data set with A549 cells [3] (5 μM), the “induction of apoptosis vs untreated cells” value is on record as “significantly induced apoptosis”. Besides, the cell apoptosis in the data set with A549 cells [3] (deltarasin 5 μM, 3-MA 5 mM where co-treated) is 11.25%; in the data set on H358 cells [6] it was 15.99%. In the data set on KRAS, the KRAS cellular localization result was “reduced the amount of KRAS protein at the plasma membrane and displaced KRAS into the cytoplasm”. Besides, the colony formation capacity result in the data set on A549 cells [7] (0-5 μM) is “significantly inhibits”. For the same compound, the colonies formed entry in the data set on A549 cells [7] (5 μM) was “no visible colonies”. In addition, the “mTOR and p70S6K phosphorylation” value in data set [8] was “suppressed”. Further, the p-AMPK level result in data set [8] is recorded as “up-regulation”.
